The source made the active and inactive calls. No cut-off for these calls is given here.
Assays:
[1] = target: Actin, alpha skeletal muscle (Oryctolagus cuniculus) (UniProt P68135); assay: Inhibition of immobilized rabbit skeletal muscle alpha-actin interaction with profilin at 66.7 uM pretreated for 30 mins followed by profilin addition measured after 1 hr by pull-down assay
[2] = target: Actin, alpha skeletal muscle (Oryctolagus cuniculus) (UniProt P68135); assay: Inhibition of immobilized rabbit skeletal muscle alpha-actin interaction with gelsolin at 12.5 uM pretreated for 30 mins followed by gelsolin addition measured after 1 hr by pull-down assay
[3] = target: Actin, alpha skeletal muscle (Oryctolagus cuniculus) (UniProt P68135); assay: Inhibition of immobilized rabbit skeletal muscle alpha-actin interaction with thymosin-beta4 assessed as decrease in cross-linked complex formation at 40 uM pretreated for 30 mins followed by thymosin-beta4 addition measured after 45 mins by cross-linking assay
[4] = test system: HUVEC; assay: Antiproliferative activity against human HUVEC measured after 72 hrs; format: cell-based
[5] = test system: HUVEC; assay: Inhibition of cell migration in human HUVEC cells assessed as decrease in cell velocity measured after 16 hrs by crystal violet staining based scratch assay; format: functional
[6] = target: Actin, alpha skeletal muscle (Oryctolagus cuniculus) (UniProt P68135); assay: (§1) Inhibition of rabbit skeletal muscle alpha-actin polymerization measured after 24 hrs in presence of ATP and fluorescent pyrene-labelled actin by fluorescence based assay
[7] = target: Actin, alpha skeletal muscle (Oryctolagus cuniculus, UniProt P68135); assay: as §1
[8] = target: Actin, alpha skeletal muscle (Oryctolagus cuniculus) (UniProt P68135); assay: Inhibition of immobilized rabbit skeletal muscle alpha-actin interaction with cofilin at 56 uM pretreated for 30 mins followed by cofilin addition measured after 1 hr by pull-down assay
[9] = target: Actin, alpha skeletal muscle (Oryctolagus cuniculus) (UniProt P68135); assay: Binding affinity to immobilized rabbit skeletal muscle alpha-actin assessed as formation of G-actin dimers at 40 uM and pH 6.8 to 8 treated for 30 mins in absence of thymosin-beta4 by size-exclusion chromatography
[10] = target: Actin, alpha skeletal muscle (Oryctolagus cuniculus) (UniProt P68135); assay: Inhibition of immobilized rabbit skeletal muscle alpha-actin interaction with thymosin-beta4 at 40 uM pretreated for 30 mins followed by thymosin-beta4 addition measured after 45 mins by cross-linking assay
[11] = target: Actin, alpha skeletal muscle (Oryctolagus cuniculus) (UniProt P68135); assay: Inhibition of rabbit skeletal muscle alpha-actin polymerization induced by Mg-ATP assessed as decrease in elongation rate at 500 nM to 5 uM measured every 1 sec for 5 mins in presence of Turkey gizzard alpha-actinin and […] fluorescent labelled actin by TIRF microscopy analysis
[12] = target: Actin, alpha skeletal muscle (Oryctolagus cuniculus) (UniProt P68135); assay: Induction of rabbit skeletal muscle alpha-actin depolymerization assessed as destabilization of F-actin 5 uM measured every 15 sec for 90 mins in presence of Turkey gizzard alpha-actinin and […] fluorescent labelled actin by TIRF microscopy analysis
[13] = test system: HUVEC; assay: Induction of morphological changes in human HUVEC cells assessed as amorphous actin aggregation in nucleus incubated for 1 hr by Hoechst staining based fluorescence assay; format: functional, cell-based
[14] = target: Actin, alpha skeletal muscle (Oryctolagus cuniculus) (UniProt P68135); assay: Binding affinity to immobilized rabbit skeletal muscle alpha-actin assessed change in retention time of G-actin dimers at 40 uM and pH 6.8 to 8 treated for 30 mins in absence of thymosin-beta4 by size-exclusion chromatography
[15] = test system: HUVEC; assay: Induction of morphological changes in human HUVEC cells assessed as disruption of F-actin fibers at 10 nM to 100 nM incubated for 1 hr by rhodamine-phalloidin staining based fluorescence assay; format: functional, cell-based
[16] = target: Actin, alpha skeletal muscle (Oryctolagus cuniculus) (UniProt P68135); assay: Inhibition of rabbit skeletal muscle alpha-actin nucleation at 500 nM to 5 uM in presence of Turkey gizzard alpha-actinin and […] fluorescent labelled actin by TIRF microscopy analysis

Structure (SMILES) | inhibition [1] | inhibition [2] | Activity [3] | IC50 [4] | IC50 [5] | inhibition [6] | IC50 [7] | inhibition [8] | Activity [9] | inhibition [10] | inhibition [11] | Activity [12] | Activity [13] | Activity [14] | Activity [15] | inhibition [16]
C/C1=C/C(=O)O[C@@H]2C[C@@H](CC[C@H](C)/C=C\CC1)O[C@@](O)([C@@H]1CSC(=O)N1)C2 [LATRUNCULIN B] | inactive | inactive | Active | 612 nM | 478 nM | Dose-dependent effect | 8470 nM | inactive | inactive | Active |  |  |  |  |  | 
CO[C@@H]1C[C@@H](O)/C=C/C=C/C=C\[C@H](C)[C@@H]([C@@H](C)[C@@H](O)C[C@@H](C)O)OC(=O)\C=C/C=C/C=C\C(C)=C\[C@@H](C)[C@@H](O)/C=C\C=C\c2coc(n2)[C@@H]1C | Active | Active |  |  |  |  |  | Active |  |  |  |  |  |  |  | 
CO[C@H]1[C@H](O[C@H]2/C=C\C=C\c3coc(n3)[C@H](C)[C@H](OC)C[C@@H](O)/C=C/C=C/C=C\[C@H](C)[C@@H]([C@@H](C)[C@@H](O)C[C@@H](C)O)OC(=O)\C=C/C=C/C=C\C(C)=C\[C@H]2C)O[C@H](C)[C@@H](O)[C@@H]1OC | Active | Active | Active | 2.98 to 3 nM | 31.7 nM | Dose-dependent effect | 15200 nM | Active | Active | Active | Active | Active | Active | Active | Active | Active

Source: ChEMBL document CHEMBL4334448, “Chivosazole A Modulates Protein-Protein Interactions of Actin” (J Nat Prod, 2019)
